Data on 82 molecules can be found in PubChem BioAssay AID489027 (Sanford-Burnham Center for Chemical Genomics, 2010).

As a reminder, the EC50 is the concentration needed to bring the measured effect to its halfway point.

Active and inactive are the calls of the source. No rule for the calls is given here.

The target in this assay is UPR counterscreen luciferase reporter, luminescence. Description: activators in UPR counterscreen luciferase reporter, dose response, counter-screen for adaptive UPR activator project, cell-based, luminescence (AID 489027).

Turning to `CC(C)N(C(=O)[C@H]1C[C@H](CC(=O)NCC23CC4CC(CC(C4)C2)C3)C(=O)N2CCc3c([nH]c4ccc(Cl)cc34)[C@]12C)C(C)C`, the EC50 entry is “inactive”.
In the case of `CCOC(=O)/C(=N\Nc1ccc(C(C)=O)cc1)c1csc(Nc2ccccc2)n1`, the EC50 entry was “inactive”.
The figure for `Cc1c(CCOC(=O)C23CC4(C)CC(C)(CC(C)(C4)C2)C3)sc[n+]1CC(=O)c1ccccc1` is > 80 µM (inactive); for `Cc1cnc(NC(=O)c2cc3c(C)nn(Cc4ccccc4Cl)c3s2)s1` it is > 80 µM (inactive); for `CCOC(=O)c1c(NC(C)=O)sc2c(OCC(O)CNC(C)(C)C)c(Br)ccc12` (configuration not stated) it is > 80 µM (inactive).
The figure for `Oc1ccc(/C=N/Nc2ncnc3c2ncn3Cc2ccccc2)cc1O` is 7.62 µM; for `CC1CCN(Cc2c(C(=O)N/N=C/c3ccc(C(F)(F)F)cc3)nnn2-c2nonc2N)CC1` it is > 80 µM (inactive); for `CCC(C)Nc1nc(N)c([N+](=O)[O-])c(NC2CCCCC2)n1` (configuration not stated) it is “inactive”.
The figure for `Cc1ccc2nsnc2c1NC(=O)c1ccc(-c2cc(Cl)ccc2Cl)o1` is > 80 µM (inactive); for `CN(C)CC(CCC(CN(C)C)C(O)(c1ccccc1)c1ccccc1)C(O)(c1ccccc1)c1ccccc1` (configuration not stated) it is 6.06 µM.
For `COc1cc(/C=C2/C(=N)N3C=CSC3=NC2=O)ccc1OCCCOc1cc(C)ccc1C`, the EC50 is > 80 µM (inactive).
Take `N#C/C(=C\c1ccc(N2CCCC2)c([N+](=O)[O-])c1)c1nc2ccccc2[nH]1`: the EC50 was > 80 µM (inactive).
The figure for `CCOc1cccc(C(=O)Nc2cccc(-c3nnc(-c4ccc(C)cc4)o3)c2)c1` is 12.1 µM.
For `COc1cc(/C=C(/C#N)c2nc3ccccc3[nH]2)ccc1OCC(=O)Nc1ccccc1C`, the EC50 is 3.77 µM.
The figure for `Cc1c(O)cc2c(c1O)C(=O)CC(c1ccccc1)O2` (configuration not stated) is 10.9 µM.
The figure for `Cc1cc(-n2c(SCC(=O)Nc3ccc(F)c(F)c3)nc3n[nH]c(C)c3c2=N)ccc1Cl` is > 80 µM (inactive).
Under `CCCn1c(Nc2nc3ccccc3n2C)nc2ccccc21` stands “inactive”.
In the case of `CCC1CCc2c(sc3nc(SCC(=O)NCc4ccco4)n(-c4ccccc4)c(=O)c23)C1` (configuration not stated), the EC50 was 15.8 µM.
Under `COc1cc(/C=C(\C#N)c2nc3ccccc3[nH]2)cc(Br)c1OCc1ccc(F)cc1` stands 15.3 µM; under `CN1/C(=C\C(=O)COC(=O)c2ccc(O)c(O)c2)C(C)(C)c2ccccc21`, 6.61 µM; under `O=C(COC(=O)/C=C/c1cn(-c2ccccc2)nc1-c1cccnc1)Nc1ccc(Cl)cc1Cl`, 14.3 µM.
Under `Cc1ccc(-n2c(O)c(/C=N/c3ncc(Br)cc3Br)c(=O)[nH]c2=O)cc1` stands “inactive”.
Under `CCOc1cc(/C=N/NC(N)=S)cc(Br)c1OCc1ccccc1C` stands 12.5 µM; under `CN(C)CCCn1cnc2c(c1=N)C(c1ccccc1)c1ccc3ccccc3c1O2` (configuration not stated), 7.75 µM; under `Cc1ccc(F)cc1N=Cc1c(O)c2ccccc2oc1=O`, 9.06 µM.
`Cc1cccc(NC(=O)/C(C#N)=C/c2cn(CC(=O)NCc3ccco3)c3ccccc23)c1C`: the EC50 is > 80 µM (inactive).
The entry for `C=C(C)[C@@]12OC3(c4ccccc4)O[C@@H]1C1[C@@H]4O[C@]4(CO)[C@@H](O)[C@]4(O)C(=O)C(C)=C[C@H]4[C@@]1(O3)[C@H](C)[C@H]2OC(=O)/C=C/C=C/c1ccccc1` (some centres not stated) is “inactive”.
The entry for `CC(C)Cn1c2c(c(=O)[nH]c1=O)C(C(F)(F)F)(C(F)(F)F)N=C(CCC1CCCCC1)N2` is “inactive”; for `CCCCCCCCCCOC(=O)Cn1c(COc2ccc(Cl)cc2)[n+](C)c2ccccc21` it is > 80 µM (inactive).
As to `COc1ccc(C2CC(c3c(-c4ccccc4)c4cc(Cl)ccc4[nH]c3=O)=NN2S(C)(=O)=O)cc1` (configuration not stated), the EC50 was > 80 µM (inactive).
Take `COc1c(Cl)cc(Cl)cc1/C=N/NC(=O)c1nnn(-c2nonc2N)c1CN1CCC(C)CC1`: the EC50 result was “inactive”.
Under `CN1Cc2c(N3CCOCC3)nc3sc(C(=O)c4ccc(Br)cc4)c(N)c3c2CC1(C)C` stands 18.7 µM; under `Nc1nc(SCc2ccc(Cl)cc2Cl)nc2nc3c(cc12)CCCC3`, > 80 µM (inactive); under `Cc1ccc(S(=O)(=O)Cc2cc(F)c([N+](=O)[O-])cc2[N+](=O)[O-])cc1`, > 80 µM (inactive).
The figure for `COc1ccc(NC(=O)C(=O)N/N=C\c2ccc(CNC(=O)C(=O)Nc3ccc(C)c(C)c3)o2)c(OC)c1` is 4.19 µM; for `COc1ccc(C2c3ccc4ccccc4c3Oc3ncn(CCCN(C)C)c(=N)c32)cc1` (configuration not stated) it is 8.25 µM; for `C/C(=N/NC(=O)c1ccc(C)s1)c1cccc(NC(=O)COc2ccc(Cl)cc2C)c1` it is 20 µM.
Under `NS(=O)(=O)c1ccc(N/N=C/c2cn(-c3ccccc3)nc2-c2cccs2)c([N+](=O)[O-])c1` stands > 80 µM (inactive); under `Cc1ccc(S(=O)(=O)N(CC(=O)N/N=C/c2ccc(F)cc2)c2cccc3cccnc23)cc1`, 1.92 µM; under `Oc1cccc2ccc(/C=C/c3ccc(Br)s3)nc12`, “inactive”.
For the molecule `CCCCCc1nc2c(c(=O)c3ccccc3n2C)c(=O)n1C1CCCCCC1`, the EC50 is 15.3 µM.
Under `Cc1ccc(C2=Nc3ccc(Br)cc3C(c3ccncc3)=NN2)cc1` stands “inactive”; under `O=C(NC(=S)Nc1ccc(NC(=O)c2cccs2)cc1)c1cc2ccccc2o1`, “inactive”; under `Cc1ccc(-n2nc3c(N4CCC(C(=O)NCCc5ccccc5C)CC4)nnc(C)c3c2C)cc1`, > 80 µM (inactive).
Turning to `COc1ccc(N2CCN(Cc3nc(N)nc(Nc4ccc(C)c(Cl)c4)n3)CC2)cc1`, the EC50 was > 80 µM (inactive).
The figure for `Cn1c(/C=C/c2ccc(Cl)cc2Cl)c([N+](=O)[O-])c(=O)n(C)c1=O` is 12.8 µM.
Under `C#CCn1c(=NC(=O)c2ccc(Cl)s2)sc2cccc(OC)c21` stands > 80 µM (inactive).
Under `Cn1nc(C(F)(F)F)c(/C=N/OC(=O)c2ccccc2)c1SCc1ccc(Cl)cc1` stands “inactive”; under `CCOc1ccc(NC(=S)NC(=O)/C=C/c2ccc(OC)c(OC)c2)c([N+](=O)[O-])c1`, > 80 µM (inactive).
With `Cc1ccc(C(=O)Cn2c(C(=O)/C=C/c3ccccc3)nc3ccccc32)cc1`, the EC50 is 10.9 µM.
Under `Cc1cc(NC(=O)/C(C#N)=C/c2ccc(-c3ccc(SC(F)F)cc3)o2)n(-c2ccccc2)n1` stands > 80 µM (inactive); under `CCCCCCCCCCOC(=O)Cn1c(COc2ccc(OC)cc2)[n+](C)c2ccccc21`, 18.8 µM; under `CCc1cc2c(=O)c(-c3cnn(-c4ccccc4)c3)c(C)oc2cc1OCC(=O)Nc1cccc(C)c1`, 11.5 µM.
In the case of `C=CCOc1ccc2cccc(/C=N/NC(=O)c3cc4cc([N+](=O)[O-])ccc4s3)c2c1`, the EC50 result was “inactive”.
The figure for `CC(C)=CCc1c2c(c3occ(-c4ccc(O)cc4)c(=O)c3c1O)C=CC(C)(C)O2` is 16.6 µM.
Under `O=C(Nc1ccc(-c2nc3cc(NC(=O)c4cccs4)ccc3o2)cc1)c1cccs1` stands 4.72 µM.
Under `COc1cccc(-c2sc3ccccc3c2-c2ccc(OCCN(C)C)cc2)c1` stands 12.6 µM; under `Cc1cccc(NC(=O)c2nc[nH]c2C(=O)Nc2ccccc2[N+](=O)[O-])c1`, > 80 µM (inactive).
Take `CC1(C)CC(=O)C(C=Nc2ccc(C(=O)c3ccccc3)cc2N=CC2=C(O)CC(C)(C)CC2=O)=C(O)C1`: the 50% effective concentration (EC50) is 9.78 µM.
Under `O=C(Nc1ccc([N+](=O)[O-])cc1)c1nc[nH]c1C(=O)NC1CCCCC1` stands > 80 µM (inactive); under `COc1ccc(C(=O)O/N=C/c2c(C(F)(F)F)nn(C)c2SCc2ccccc2Cl)cc1`, “inactive”.
The figure for `O=C(Nc1ccc2nc3n(c(=O)c2c1)CCCCC3)c1ccccc1Cl` is > 80 µM (inactive).
The entry for `COc1ccc(C(=O)/C=C/c2cccs2)c(OC(=O)c2cccc([N+](=O)[O-])c2)c1` is “inactive”.
Regarding `Cc1c(C(=O)Nc2nccs2)oc2ccc(Br)cc12`, the EC50 was > 80 µM (inactive).
Turning to `CCOc1ccccc1CNC(=O)C1CCN(c2nnc(C)c3c(C)n(-c4ccc(C)cc4)nc23)CC1`, the EC50 is > 80 µM (inactive).
For `O=C(CC1C[C@H](C(=O)N2CCCCC2)[C@@]2(CCc3ccccc3)c3[nH]c4ccccc4c3CCN2C1=O)NCCC1=CCCCC1` (some centres not stated), the EC50 entry was “inactive”.
The figure for `CCOc1ccccc1-n1c(SCC(=O)Nc2ccc(CC)cc2)nc2n[nH]c(C)c2c1=N` is 5.3 µM; for `COc1ccc(/C=N/NC(=O)c2cccc([N+](=O)[O-])c2)c2ccccc12` it is “inactive”.
Under `COc1ccc(-c2c/c(=N\c3nc(-c4ccccc4)c(C)s3)c3ccccc3o2)cc1O` stands “inactive”.
The figure for `CCOC(=O)c1sc(-c2ccccc2)cc1NC(=O)Nc1ccc([N+](=O)[O-])cc1` is 16.2 µM; for `COc1ccc(NC(=O)c2cc3c(=O)n(C)c4ccccc4c3n2C)cc1Cl` it is > 80 µM (inactive).
Regarding `CCCCCC(=O)Nc1ccc(C(=O)N/N=C/c2ccc([N+](=O)[O-])cc2)cc1`, the EC50 entry was “inactive”.
Under `O=C(/C=C1\NC2(CCCC2)Cc2ccccc21)C(=O)N/N=C/c1ccc(O)c(O)c1` stands 10.4 µM; under `COc1ccc(-c2coc3cc4oc(=O)cc(-c5ccccc5)c4cc23)cc1F`, “inactive”; under `Brc1ccc(C2=Nn3c(nnc3-c3n[nH]c4c3CCC4)SC2)cc1`, “inactive”.
As for `CCOC(=O)c1nnc(-c2ccc(C)cc2)nc1Sc1cccc(Cl)c1`, the EC50 was > 80 µM (inactive).
Under `CCc1ccc2[nH]c3nc(SCC(=O)NNC(=O)c4ccc(C(C)(C)C)cc4)nnc3c2c1` stands “inactive”; under `Cc1ccc(-c2nnc(-c3ccc(NC(=O)Cc4cccs4)cc3)o2)cc1`, > 80 µM (inactive).
Turning to `COc1ccc2cc1Oc1ccc(cc1)CC1c3c(cc(OC)c4c3Oc3cc5c(cc3O4)CCNC5C2)CCN1C` (configuration not stated), the EC50 was > 80 µM (inactive).
With `CCc1cc2c(C)ccc(C)c2nc1SCC(=O)Nc1c[nH]c(=O)[nH]c1=O`, the EC50 was 16.8 µM.
Under `CCCn1c(SCc2nc3sc(C)c(C)c3c(=O)[nH]2)nc2ccccc2c1=O` stands > 80 µM (inactive); under `Oc1ccc(-c2nc3ccc4ccccc4c3c3c2CCC3)cc1O`, 18 µM.
